Experimental data published in US20240285614A1, “PHENOL RIBONUCLEOTIDE REDUCTASE (RNR) INHIBITORS AND USES THEREOF” (Boundless Bio, Inc., priority 2023, published 2024).

Key:
RNR (RNR1:RNR2 1:1) = target: T1, RNR (RNR1:RNR2 1:1) (Homo sapiens, UniProt P23921+P31350); test: RNR enzyme activity, rapid-fire mass spectrometry (RF/MS) assay; assay type: biochemical; conditions: RNR 50 nM, 1:1 (RNR1:RNR2); CDP 5 μM; ATP 1 mM; 37° C., 45 min; compounds screened up to 50 μM
T1 sequence (P23921 1-792): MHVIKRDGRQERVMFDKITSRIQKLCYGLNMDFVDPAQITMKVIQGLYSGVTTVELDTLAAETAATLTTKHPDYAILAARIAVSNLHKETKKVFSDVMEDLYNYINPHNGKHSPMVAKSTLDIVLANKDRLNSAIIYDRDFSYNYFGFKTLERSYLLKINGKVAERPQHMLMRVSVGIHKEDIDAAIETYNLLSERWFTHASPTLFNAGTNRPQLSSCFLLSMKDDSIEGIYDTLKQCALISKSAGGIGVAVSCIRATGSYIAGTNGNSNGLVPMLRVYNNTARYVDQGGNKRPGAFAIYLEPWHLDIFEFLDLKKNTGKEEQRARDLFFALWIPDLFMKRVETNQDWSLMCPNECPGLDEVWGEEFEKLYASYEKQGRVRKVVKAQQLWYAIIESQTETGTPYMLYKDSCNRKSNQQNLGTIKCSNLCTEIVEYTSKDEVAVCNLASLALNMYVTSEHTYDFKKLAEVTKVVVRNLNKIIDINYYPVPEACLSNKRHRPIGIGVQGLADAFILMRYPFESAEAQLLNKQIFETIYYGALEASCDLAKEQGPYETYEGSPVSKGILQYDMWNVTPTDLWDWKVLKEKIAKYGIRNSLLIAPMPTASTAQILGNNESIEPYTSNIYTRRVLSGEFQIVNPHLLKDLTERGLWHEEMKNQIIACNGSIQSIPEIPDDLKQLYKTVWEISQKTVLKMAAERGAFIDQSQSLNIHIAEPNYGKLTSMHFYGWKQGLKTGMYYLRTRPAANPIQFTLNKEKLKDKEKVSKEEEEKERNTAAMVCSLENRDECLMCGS
T1 sequence (P31350 1-389): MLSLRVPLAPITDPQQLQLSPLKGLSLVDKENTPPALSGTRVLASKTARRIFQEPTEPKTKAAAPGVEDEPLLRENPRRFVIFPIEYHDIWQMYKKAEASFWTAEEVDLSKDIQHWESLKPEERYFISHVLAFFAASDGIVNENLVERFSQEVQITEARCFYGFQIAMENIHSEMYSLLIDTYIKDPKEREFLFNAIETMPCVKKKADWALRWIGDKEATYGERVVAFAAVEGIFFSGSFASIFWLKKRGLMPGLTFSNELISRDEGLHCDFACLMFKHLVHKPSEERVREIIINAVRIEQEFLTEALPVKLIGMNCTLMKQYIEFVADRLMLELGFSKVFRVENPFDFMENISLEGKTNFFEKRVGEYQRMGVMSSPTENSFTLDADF
Experimental: A rapid-fire mass spectrometry (RF/MS) assay was used to assess RNR enzyme activity using a 384 well plate and a robotic platform.
The plate layout included two validated reference compounds (Triapine (3-AP) and Hydroxyurea (HU)): • A dose response in duplicate, top concentration: 5 μM (3-AP) and 250 μM (HU), semi-log • dilutions. • Spike wells in triplicate randomly spotted at four concentrations: • 250 μM, 100 μM, 30 μM and 2 μM for HU • 5 μM, 2 μM, 0.6 μM and 0.04 μM for 3-AP
First, the multidrop pipes were saturated for 30 minutes with enzymatic solution. Then 30 μL of Stop solution was distributed in column 24. Next, 15 μL of enzyme was distributed in column 1 to 24. Next, a pre-incubation step of 15 minutes at room temperature occurred, followed by distribution of 15 μL of substrate solution (column 1 to 24). Next, the plate was incubated for 45 minutes at 37° C. 30 μL of Stop solution was distributed to columns 1 to 23.
The final parameters for the enzyme reactions were: • Incubation: 37° C., 45 min • [CDP]: 5 μM: [ATP]: 1 mM; [NADPH]: No • [RNR]final: 50 nM with 1:1 (RNR1:RNR2) ratio • Final volume: 30 μL • Stop solution: 6% HCOOH containing 2 μM of 15

[1] = system: pCHK1 (S345) in Colo320 DM cells; test: Alphalisa assay, detection of pCHK1 (S345) in Colo320 DM cells; assay type: cell-based; conditions: Homo sapiens, COLO 320DM, compound incubation overnight (approximately 16 hours)
Experimental: Colo320 DM cells (ATCC #CCL-220, derived from human colorectal adenocarcinoma, Dukes' type C) were seeded on a 96-well, cell culture treated assay plate at a density of 50,000 cells/well in 200 μL of RPMI-1640 media supplemented with 10% Fetal Bovine Serum and incubated at 37° C. overnight. The following day, test compound dilutions were added directly to the plated cells by a Tecan digital dispenser to a final DMSO concentration of <0.5%, and incubated at 37° C. overnight (approximately 16 hours). The following day all cull culture media was removed from the cells. 75 μL of 1× AlphaLisa lysis buffer was added to each well and plates were agitated on a shaker for 30 minutes at room temperature. The lysis of cells and detection of pCHK1 (S345) were performed with regents contained within the AlphaLisa Sure Fire assay kit (Perkin Elmer #ALSU-PCHK1-A) according to the manufacturer's instructions. 10 μL of each lysate was then transferred to a white, 384-well assay plate (Perkin Elmer #6008280), 5 μL of Acceptor mix was then added to each well of lysate in the white, 384-well assay plate and incubated in the dark at room temperature for 60 minutes. 5 μL of Donor mix was then added to each well of the white, 384-well assay plate in subdued light and incubated at room temperature for 60 minutes. Plates were read on an Alpha Technology-compatible plate reader using standard AlphaLisa settings.

O=S(=O)(c1ccc2cc[nH]c2c1)N1CCCN(c2ccc(O)cc2)CC1 [compound 14, 4-(4-((1H-indol-6-yl)sulfonyl)-1,4-diazepan-1-yl)phenol]
IC50 (RNR (RNR1:RNR2 1:1)): ≤ 50 nM
IC50 [1]: 5000 to 10000 nM

CN(c1ccc(O)cc1)C1CCN(S(=O)(=O)c2ccc3cc[nH]c3c2)CC1 [compound 15, 4-((1-((1H-indol-6-yl)sulfonyl)piperidin-4-yl)(methyl)amino)phenol]
IC50 (RNR (RNR1:RNR2 1:1)): 50 to 100 nM
IC50 [1]: 1000 to 5000 nM

CN(C1CN(c2ccc(O)cc2)C1)S(=O)(=O)c1ccc2cc[nH]c2c1 [compound 16, N-(1-(4-hydroxyphenyl)azetidin-3-yl)-N-methyl-1H-indole-6-sulfonamide]
IC50 (RNR (RNR1:RNR2 1:1)): 100 to 500 nM
IC50 [1]: 1000 to 5000 nM

O=S(=O)(c1ccc2cc[nH]c2c1)N1C[C@H]2COC[C@@H](C1)N2c1ccc(O)cc1 [compound 17, 4-((1R,5S)-7-((1H-indol-6-yl)sulfonyl)-3-oxa-7,9-diazabicyclo[3.3.1]nonan-9-yl)phenol]
IC50 (RNR (RNR1:RNR2 1:1)): ≤ 50 nM
IC50 [1]: ≤ 1000 nM

CN(c1ccc(O)cc1)C1CN(S(=O)(=O)c2ccc3cn[nH]c3c2)C1 [compound 18, 4-((1-((1H-indazol-6-yl)sulfonyl)azetidin-3-yl)(methyl)amino)phenol]
IC50 (RNR (RNR1:RNR2 1:1)): 100 to 500 nM
IC50 [1]: 10000 to 50000 nM

O=S(=O)(c1ccc2cc[nH]c2c1)N1CC(N(c2ccc(O)cc2)C2CC2)C1 [compound 19, 4-((1-((1H-indol-6-yl)sulfonyl)azetidin-3-yl)(cyclopropyl)amino)phenol]
IC50 (RNR (RNR1:RNR2 1:1)): ≤ 50 nM
IC50 [1]: 1000 to 5000 nM

C[C@@H]1CN(c2ccc(O)cc2)CCN1S(=O)(=O)c1ccc2cc[nH]c2c1 [compound 21, (R)-4-(4-((1H-indol-6-yl)sulfonyl)-3-methylpiperazin-1-yl)phenol]
IC50 (RNR (RNR1:RNR2 1:1)): ≤ 50 nM
IC50 [1]: 1000 to 5000 nM

CN(c1ccc(O)cc1)C1CN(S(=O)(=O)c2cc3[nH]cc(Cl)c3cc2F)C1 [compound 22, 4-((1-((3-chloro-5-fluoro-1H-indol-6-yl)sulfonyl)azetidin-3-yl)(methyl)amino)phenol]
IC50 (RNR (RNR1:RNR2 1:1)): ≤ 50 nM
IC50 [1]: 1000 to 5000 nM

CN(c1ccc(O)cc1)C1CN(S(=O)(=O)c2ccc3ccn(C)c3c2)C1 [compound 23, 4-(methyl(1-((1-methyl-1H-indol-6-yl)sulfonyl)azetidin-3-yl)amino)phenol]
IC50 (RNR (RNR1:RNR2 1:1)): ≤ 50 nM
IC50 [1]: 1000 to 5000 nM

CN(c1ccc(O)cc1)C1CN(S(=O)(=O)c2cccc3[nH]ccc23)C1 [compound 24, 4-((1-((1H-indol-4-yl)sulfonyl)azetidin-3-yl)(methyl)amino)phenol]
IC50 (RNR (RNR1:RNR2 1:1)): 50 to 100 nM
IC50 [1]: 1000 to 5000 nM

CCN(c1ccc(O)cc1)C1CN(S(=O)(=O)c2ccc3cc[nH]c3c2)C1 [compound 25, 4-((1-((1H-indol-6-yl)sulfonyl)azetidin-3-yl)(ethyl)amino)phenol]
IC50 (RNR (RNR1:RNR2 1:1)): ≤ 50 nM
IC50 [1]: ≤ 1000 nM

O=S(=O)(c1ccc2cc[nH]c2c1)N1C[C@H]2CC[C@@H](C1)N2c1ccc(O)cc1 [compound 26, 4-((1R,5S)-3-((1H-indol-6-yl)sulfonyl)-3,8-diazabicyclo[3.2.1]octan-8-yl)phenol]
IC50 (RNR (RNR1:RNR2 1:1)): 100 to 500 nM
IC50 [1]: 5000 to 10000 nM

CN(c1ccc(O)cc1)C1CN(S(=O)(=O)c2ccc3[nH]ccc3c2)C1 [compound 27, 4-((1-((1H-indol-5-yl)sulfonyl)azetidin-3-yl)(methyl)amino)phenol]
IC50 (RNR (RNR1:RNR2 1:1)): ≤ 50 nM
IC50 [1]: ≤ 1000 nM

O=S(=O)(c1ccc2cc[nH]c2c1)N1C[C@H]2CCC[C@@H](C1)N2c1ccc(O)cc1 [compound 28, 4-((1R,5S)-3-((1H-indol-6-yl)sulfonyl)-3,9-diazabicyclo[3.3.1]nonan-9-yl)phenol]
IC50 (RNR (RNR1:RNR2 1:1)): ≤ 50 nM
IC50 [1]: 1000 to 5000 nM

CN(CC1CN(S(=O)(=O)c2ccc3cc[nH]c3c2)C1)c1ccc(O)cc1 [compound 29, 4-(((1-((1H-indol-6-yl)sulfonyl)azetidin-3-yl)methyl)(methyl)amino) phenol]
IC50 (RNR (RNR1:RNR2 1:1)): ≤ 50 nM
IC50 [1]: 5000 to 10000 nM

O=S(=O)(c1ccc2cc[nH]c2c1)N1[C@@H]2CCC[C@H]1CN(c1ccc(O)cc1)C2 [compound 34, 4-((1R,5S)-9-((1H-indol-6-yl)sulfonyl)-3,9-diazabicyclo[3.3.1]nonan-3-yl)phenol]
IC50 (RNR (RNR1:RNR2 1:1)): ≤ 50 nM
IC50 [1]: 1000 to 5000 nM

O=S(=O)(c1ccc2cc[nH]c2c1)N1CC2CC1CN2c1ccc(O)cc1 (centres unmarked) [compound 35, 4-(5-((1H-indol-6-yl)sulfonyl)-2,5-diazabicyclo[2.2.1]heptan-2-yl)phenol]
IC50 (RNR (RNR1:RNR2 1:1)): 100 to 500 nM
IC50 [1]: 10000 to 50000 nM

O=S(=O)(c1ccc2cc[nH]c2c1)N1CCC(Oc2ccc(O)cc2)C1 (centres unmarked) [compound 40, 4-((1-((1H-indol-6-yl)sulfonyl)pyrrolidin-3-yl)oxy)phenol]
IC50 (RNR (RNR1:RNR2 1:1)): ≤ 50 nM
IC50 [1]: ≤ 1000 nM

Cn1ccc2ccc(S(=O)(=O)N3CCC4(CCN(c5ccc(O)cc5)CC4)C3)cc21 [compound 41, 4-(2-((1-methyl-1H-indol-6-yl)sulfonyl)-2,8-diazaspiro[4.5]decan-8-yl)phenol]
IC50 (RNR (RNR1:RNR2 1:1)): 100 to 500 nM
IC50 [1]: 10000 to 50000 nM

O=S(=O)(c1ccc2cc[nH]c2c1)N1CCC(Oc2ccc(O)cc2)CC1 [compound 43, 4-((1-((1H-indol-6-yl)sulfonyl)piperidin-4-yl)oxy)phenol]
IC50 (RNR (RNR1:RNR2 1:1)): ≤ 50 nM
IC50 [1]: 1000 to 5000 nM

O=S(=O)(c1ccc2cc[nH]c2c1)N1CC(O)C(Nc2ccc(O)cc2)C1 (centres unmarked) [compound 44, 1-((1H-indol-6-yl)sulfonyl)-4-((4-hydroxyphenyl)amino) pyrrolidin-3-ol]
IC50 (RNR (RNR1:RNR2 1:1)): 50 to 100 nM
IC50 [1]: 5000 to 10000 nM

CN(CC1CCN1S(=O)(=O)c1ccc2cc[nH]c2c1)c1ccc(O)cc1 (centres unmarked) [compound 45, 4-(((1-((1H-indol-6-yl)sulfonyl)azetidin-2-yl)methyl)(methyl)amino) phenol]
IC50 (RNR (RNR1:RNR2 1:1)): 50 to 100 nM
IC50 [1]: 5000 to 10000 nM

O=S(=O)(c1ccc2cc[nH]c2c1)N1CCN(c2ccc(O)cc2)CC12CCC2 [compound 46, 4-(5-((1H-indol-6-yl)sulfonyl)-5,8-diazaspiro[3.5]nonan-8-yl)phenol]
IC50 (RNR (RNR1:RNR2 1:1)): 50 to 100 nM
IC50 [1]: 1000 to 5000 nM

O=S(=O)(c1cc2ccccc2[nH]1)N1CCC2(CCN(c3ccc(O)cc3)CC2)C1 [compound 47, 4-(2-((1H-indol-2-yl)sulfonyl)-2,8-diazaspiro[4.5]decan-8-yl)phenol]
IC50 (RNR (RNR1:RNR2 1:1)): 100 to 500 nM
IC50 [1]: 10000 to 50000 nM

O=S(=O)(c1ccc2cc[nH]c2c1)N1CC[C@H](N(Cc2cccnc2)c2ccc(O)cc2)C1 [compound 50, (S)-4-((1-((1H-indol-6-yl)sulfonyl)pyrrolidin-3-yl)(pyridin-3-ylmethyl)amino)phenol]
IC50 (RNR (RNR1:RNR2 1:1)): 100 to 500 nM
IC50 [1]: 10000 to 50000 nM
